Patent publication US11072633B2 (priority 2016, dated 2021)
Where two headings read alike, the source gives them in different places.

Key:
Mtb = assay: Isoniazid MIC shift on Mtb MIC plates (broth microdilution MIC); assay type: cell-based, M. tuberculosis
[1] = test system: M. tuberculosis constitutively expressing the luxABCDE operon; assay: microbe, parasite or virus in culture; assay type: cell-based
M. tuberculosis = assay: Minimum Bactericidal Concentration (MBC); assay type: cell-based; conditions: Mycobacterium tuberculosis; INH with 60 μM 107; read-out: MBC of INH
in vitro [2] = assay type: in vitro ADME; conditions: human
Method: (§1) Caco-2 cells were diluted to 6.86×10^6 cells/mL, dispensed into a 96-well HTS Transwell plate, and cultured for 14 to 18 days. 6-azasteroids at 5 μM was incubated at 37° C. for 2 hours with the Caco-2 cell monolayer in HBSS buffer (10 mM HEPES, pH 7.4) containing 5% BSA. Aliquots from donor sides (apical compartment for Ap→Bl flux, and basolateral compartment for Bl→Ap) and receiver sides (basolateral compartment for Ap→Bl flux, and apical compartment for Bl→Ap) were separated and extracted by acetonitrile or methanol containing appropriate internal standards (IS). The concentration of 6-azasteroid was determined by LC-MS/MS analysis.
(§2) Elution rate: 0.65 mL/min.
(§3) To predict absorption via oral administration, Caco-2 bidirectional permeability assay was performed (Table 8).

Caco-2 cell line = assay: in vitro; assay type: in vitro ADME; conditions: human, Caco-2, 2 h, 5 μM, pH 7.4
Method: as §1, §2, §3

hERG = biological target: T1, hERG (Homo sapiens, UniProt Q12809); assay: hERG assay (hERG currents in HEK 293 cells); assay type: cell-based
T1 construct: expressed in transfected cells
T1 sequence (Q12809 whole entry): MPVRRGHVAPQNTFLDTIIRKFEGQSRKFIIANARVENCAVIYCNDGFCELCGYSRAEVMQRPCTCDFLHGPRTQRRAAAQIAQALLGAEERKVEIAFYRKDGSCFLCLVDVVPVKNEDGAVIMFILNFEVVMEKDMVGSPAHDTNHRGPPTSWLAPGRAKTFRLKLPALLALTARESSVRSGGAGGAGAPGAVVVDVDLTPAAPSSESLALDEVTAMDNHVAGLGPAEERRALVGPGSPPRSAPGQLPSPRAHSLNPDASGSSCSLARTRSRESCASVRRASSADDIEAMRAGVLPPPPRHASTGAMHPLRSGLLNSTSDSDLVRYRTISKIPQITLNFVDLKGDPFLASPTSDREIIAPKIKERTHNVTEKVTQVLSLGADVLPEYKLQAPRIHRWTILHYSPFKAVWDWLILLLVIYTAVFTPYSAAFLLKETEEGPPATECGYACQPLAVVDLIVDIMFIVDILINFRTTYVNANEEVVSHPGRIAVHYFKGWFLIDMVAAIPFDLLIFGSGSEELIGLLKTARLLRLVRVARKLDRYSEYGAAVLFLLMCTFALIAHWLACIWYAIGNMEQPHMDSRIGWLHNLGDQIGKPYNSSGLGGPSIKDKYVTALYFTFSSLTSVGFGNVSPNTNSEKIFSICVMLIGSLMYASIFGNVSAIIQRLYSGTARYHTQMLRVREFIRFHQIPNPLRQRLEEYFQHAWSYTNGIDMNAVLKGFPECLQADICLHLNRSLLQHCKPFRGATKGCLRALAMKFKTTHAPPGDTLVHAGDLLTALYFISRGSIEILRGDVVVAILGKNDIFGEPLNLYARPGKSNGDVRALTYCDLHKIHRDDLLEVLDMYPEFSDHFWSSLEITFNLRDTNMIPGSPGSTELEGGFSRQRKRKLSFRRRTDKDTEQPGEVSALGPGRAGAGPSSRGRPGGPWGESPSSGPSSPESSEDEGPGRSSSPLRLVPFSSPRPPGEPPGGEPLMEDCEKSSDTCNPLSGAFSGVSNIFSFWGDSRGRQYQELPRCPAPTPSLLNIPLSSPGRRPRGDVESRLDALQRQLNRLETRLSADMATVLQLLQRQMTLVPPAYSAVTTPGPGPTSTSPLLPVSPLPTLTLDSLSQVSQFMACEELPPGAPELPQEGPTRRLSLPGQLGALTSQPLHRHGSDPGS
Method: hERG stably expressed HEK 293 cells were seeded at 5×10^5 cells/per 6 cm cell culture dish and induced with doxycycline at 1 μg/mL for 48 hours. Compound at the final concentrations of 30, 10, 3.33, 1.11 and 0.37 μM was applied to the cells accumulatively, post-compound hERG currents were recorded, and IC50 was calculated. Dofetilide was used as a positive control.
To predict the potential cardiotoxic effects of 6-azastroids, human ether-a-go-go related gene (hERG) assay was applied to 100, 107 and 114 (Table 9). Cytotoxicity of 107 was also assessed (Table 10).

in vitro [3] = assay type: cell-based; conditions: human
Method: (§4) The cytotoxicity of SB107 was determined by measuring […], THP-1, HepG2, and HK-2 cell viability after 3 days in the presence of SB107 in a 384-well plate format. SB107 was prepared as 10-point serial dilutions in DMSO, with the highest concentration at 30 μM. Assay plates were incubated for 3 days at 37° C., 5% CO2 and relative luminescent units (RLU) were measured using the CellTiter-Glo® Luminescent Cell Viability Assay. The dose response curve was fitted using the Levenberg-Marquardt algorithm.

in vitro [4] = assay type: cell-based; conditions: human; remark: listed apart in the source
Method: as §4

in vitro [5] = assay type: cell-based; conditions: human; remark: listed apart in the source
Method: as §4

in vitro [6] = assay type: cell-based; conditions: human; remark: listed apart in the source
Method: as §4

CYP1A2 = biological target: T2, CYP1A2 (Homo sapiens, UniProt P05177); assay: in vitro; assay type: in vitro ADME; conditions: both sexes, microsomes, read-out: % Inhibition 1A2
T2 construct: using pooled male and female human liver microsomes; from tissue; host or cells: pooled human liver microsomes
T2 sequence (P05177 whole entry): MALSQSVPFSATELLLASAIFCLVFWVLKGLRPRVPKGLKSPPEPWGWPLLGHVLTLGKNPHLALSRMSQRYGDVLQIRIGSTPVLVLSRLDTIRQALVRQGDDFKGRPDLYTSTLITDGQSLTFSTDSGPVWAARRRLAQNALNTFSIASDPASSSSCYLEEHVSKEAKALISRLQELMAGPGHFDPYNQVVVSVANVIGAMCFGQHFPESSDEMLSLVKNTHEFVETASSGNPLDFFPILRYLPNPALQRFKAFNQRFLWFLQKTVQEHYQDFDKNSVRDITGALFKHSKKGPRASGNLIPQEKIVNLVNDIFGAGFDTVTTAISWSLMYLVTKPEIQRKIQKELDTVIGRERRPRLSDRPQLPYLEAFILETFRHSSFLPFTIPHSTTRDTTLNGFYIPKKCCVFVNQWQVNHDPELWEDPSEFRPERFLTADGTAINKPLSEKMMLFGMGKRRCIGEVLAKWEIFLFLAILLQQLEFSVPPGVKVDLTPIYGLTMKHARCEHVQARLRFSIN
Method: (§5) The potential for inhibtion of CYP enzymes (CYP1A2, CYP2A6, CYP2B6, CYP2C8, CYP2C9, CYP2C19, CYP2D6, CYP2E1 and CYP3A4) by 107 at 10 μM were using pooled male and female human liver microsomes, Freshly plated human microsomes with substrate to each CYP enzyme was treated with 107 for 5-20 min. The concentrations of marker metabolites of known substrates were determined by LCMS analysis.
(§6) The inhibition of CYP enzymes by 107 was evaluated in human liver microsomes (Table 11).

CYP2A6 = biological target: T3, CYP2A6 (Homo sapiens, UniProt P11509); assay: in vitro; assay type: in vitro ADME; conditions: both sexes, microsomes, read-out: % Inhibition 2A6
T3 construct: using pooled male and female human liver microsomes; from tissue; host or cells: pooled human liver microsomes
Method: as §5, §6

CYP2B6 = biological target: T4, CYP2B6 (Homo sapiens, UniProt P20813); assay: in vitro; assay type: in vitro ADME; conditions: both sexes, microsomes, read-out: % Inhibition 2B6
T4 construct: using pooled male and female human liver microsomes; from tissue; host or cells: pooled human liver microsomes
Method: as §5, §6

CYP2C19 = biological target: T5, CYP2C19 (Homo sapiens, UniProt P33261); assay: in vitro; assay type: in vitro ADME; conditions: both sexes, microsomes, read-out: % Inhibition 2C19
T5 construct: using pooled male and female human liver microsomes; from tissue; host or cells: pooled human liver microsomes
T5 sequence (P33261 whole entry): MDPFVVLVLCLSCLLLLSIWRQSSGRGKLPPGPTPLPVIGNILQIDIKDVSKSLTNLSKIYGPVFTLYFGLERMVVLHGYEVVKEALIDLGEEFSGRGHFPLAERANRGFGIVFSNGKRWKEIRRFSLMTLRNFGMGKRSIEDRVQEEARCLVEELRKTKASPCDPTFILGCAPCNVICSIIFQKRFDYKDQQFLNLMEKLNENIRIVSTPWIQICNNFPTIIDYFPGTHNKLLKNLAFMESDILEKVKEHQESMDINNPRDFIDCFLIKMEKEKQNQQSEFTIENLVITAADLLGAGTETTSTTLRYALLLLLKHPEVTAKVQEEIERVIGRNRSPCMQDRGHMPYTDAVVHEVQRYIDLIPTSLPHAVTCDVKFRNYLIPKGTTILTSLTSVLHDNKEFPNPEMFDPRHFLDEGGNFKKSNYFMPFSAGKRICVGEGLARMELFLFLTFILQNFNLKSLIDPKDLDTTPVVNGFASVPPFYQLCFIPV
Method: as §5, §6

CYP2C8 = biological target: T6, CYP2C8 (Homo sapiens, UniProt P10632); assay: in vitro; assay type: in vitro ADME; conditions: both sexes, microsomes, read-out: % Inhibition 2C8
T6 construct: using pooled male and female human liver microsomes; from tissue; host or cells: pooled human liver microsomes
T6 sequence (P10632 whole entry): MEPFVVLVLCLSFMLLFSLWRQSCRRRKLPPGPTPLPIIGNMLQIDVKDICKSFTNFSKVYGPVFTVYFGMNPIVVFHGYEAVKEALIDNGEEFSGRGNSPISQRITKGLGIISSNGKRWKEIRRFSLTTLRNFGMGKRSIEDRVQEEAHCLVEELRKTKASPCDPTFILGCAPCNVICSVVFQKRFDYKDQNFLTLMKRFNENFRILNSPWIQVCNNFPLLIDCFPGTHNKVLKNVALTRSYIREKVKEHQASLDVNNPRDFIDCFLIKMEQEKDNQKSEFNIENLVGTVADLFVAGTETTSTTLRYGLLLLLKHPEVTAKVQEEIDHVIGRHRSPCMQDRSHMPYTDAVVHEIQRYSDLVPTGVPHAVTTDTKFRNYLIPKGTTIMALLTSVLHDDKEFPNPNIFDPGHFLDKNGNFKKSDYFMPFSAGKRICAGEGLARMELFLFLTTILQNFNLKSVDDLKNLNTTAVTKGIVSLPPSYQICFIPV
Method: as §5, §6

CYP2C9 = biological target: T7, CYP2C9 (Homo sapiens, UniProt P11712); assay: in vitro; assay type: in vitro ADME; conditions: both sexes, microsomes, read-out: % Inhibition 2C9
T7 construct: using pooled male and female human liver microsomes; from tissue; host or cells: pooled human liver microsomes
T7 sequence (P11712 whole entry): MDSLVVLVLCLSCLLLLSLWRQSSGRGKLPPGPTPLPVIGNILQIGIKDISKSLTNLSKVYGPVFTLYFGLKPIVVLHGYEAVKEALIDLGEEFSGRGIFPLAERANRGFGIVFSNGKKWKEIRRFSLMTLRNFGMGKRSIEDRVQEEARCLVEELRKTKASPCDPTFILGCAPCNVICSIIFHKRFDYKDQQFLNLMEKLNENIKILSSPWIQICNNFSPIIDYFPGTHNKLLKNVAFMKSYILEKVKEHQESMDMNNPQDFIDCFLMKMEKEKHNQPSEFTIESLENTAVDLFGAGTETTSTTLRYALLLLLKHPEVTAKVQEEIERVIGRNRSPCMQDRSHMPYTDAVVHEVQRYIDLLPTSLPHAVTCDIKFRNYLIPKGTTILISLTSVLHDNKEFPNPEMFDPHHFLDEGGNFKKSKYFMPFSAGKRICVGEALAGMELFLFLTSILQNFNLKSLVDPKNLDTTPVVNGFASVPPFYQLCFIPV
Method: as §5, §6

CYP2D6 = biological target: T8, CYP2D6 (Homo sapiens, UniProt P10635); assay: in vitro; assay type: in vitro ADME; conditions: both sexes, microsomes, read-out: % Inhibition 2D6
T8 construct: using pooled male and female human liver microsomes; from tissue; host or cells: pooled human liver microsomes
T8 sequence (P10635 whole entry): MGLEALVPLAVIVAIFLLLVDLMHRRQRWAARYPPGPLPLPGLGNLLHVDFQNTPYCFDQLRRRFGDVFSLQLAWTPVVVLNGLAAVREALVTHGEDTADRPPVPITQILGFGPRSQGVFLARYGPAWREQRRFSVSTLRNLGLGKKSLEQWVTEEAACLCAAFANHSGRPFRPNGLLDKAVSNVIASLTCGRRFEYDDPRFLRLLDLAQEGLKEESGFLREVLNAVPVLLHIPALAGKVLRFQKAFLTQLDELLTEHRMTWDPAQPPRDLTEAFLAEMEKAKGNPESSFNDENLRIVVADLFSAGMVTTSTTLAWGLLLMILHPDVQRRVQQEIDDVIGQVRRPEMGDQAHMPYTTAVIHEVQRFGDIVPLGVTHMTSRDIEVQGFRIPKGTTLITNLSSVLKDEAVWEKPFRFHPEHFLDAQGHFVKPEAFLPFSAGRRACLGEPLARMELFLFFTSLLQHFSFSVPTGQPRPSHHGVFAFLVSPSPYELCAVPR
Method: as §5, §6

CYP2E1 = biological target: T9, CYP2E1 (Homo sapiens, UniProt P05181); assay: in vitro; assay type: in vitro ADME; conditions: both sexes, microsomes, read-out: % Inhibition 2E1
T9 construct: using pooled male and female human liver microsomes; from tissue; host or cells: pooled human liver microsomes
T9 sequence (P05181 whole entry): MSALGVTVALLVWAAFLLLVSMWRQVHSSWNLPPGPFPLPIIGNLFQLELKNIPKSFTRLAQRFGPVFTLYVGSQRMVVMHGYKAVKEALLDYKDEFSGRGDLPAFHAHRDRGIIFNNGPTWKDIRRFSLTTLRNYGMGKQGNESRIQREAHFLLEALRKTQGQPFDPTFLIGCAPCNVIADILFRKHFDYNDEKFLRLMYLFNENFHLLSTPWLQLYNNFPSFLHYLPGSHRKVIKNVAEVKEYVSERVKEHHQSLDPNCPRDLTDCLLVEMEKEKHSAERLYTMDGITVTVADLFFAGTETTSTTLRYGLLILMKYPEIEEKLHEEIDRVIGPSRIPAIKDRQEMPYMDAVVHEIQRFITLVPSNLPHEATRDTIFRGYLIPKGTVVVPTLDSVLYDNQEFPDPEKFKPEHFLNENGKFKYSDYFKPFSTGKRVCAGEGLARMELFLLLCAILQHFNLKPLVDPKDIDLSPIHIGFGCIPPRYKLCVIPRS
Method: as §5, §6

CYP3A4 = biological target: T10, CYP3A4 (Homo sapiens, UniProt P08684); assay: Inhibition of CYPs in human liver microsomes, CYP3A4; assay type: in vitro ADME; conditions: for inhibition at 10 µM: both sexes, human, microsomes
T10 construct: using pooled male and female human liver microsomes; from tissue; host or cells: pooled human liver microsomes
T10 sequence (P08684 whole entry): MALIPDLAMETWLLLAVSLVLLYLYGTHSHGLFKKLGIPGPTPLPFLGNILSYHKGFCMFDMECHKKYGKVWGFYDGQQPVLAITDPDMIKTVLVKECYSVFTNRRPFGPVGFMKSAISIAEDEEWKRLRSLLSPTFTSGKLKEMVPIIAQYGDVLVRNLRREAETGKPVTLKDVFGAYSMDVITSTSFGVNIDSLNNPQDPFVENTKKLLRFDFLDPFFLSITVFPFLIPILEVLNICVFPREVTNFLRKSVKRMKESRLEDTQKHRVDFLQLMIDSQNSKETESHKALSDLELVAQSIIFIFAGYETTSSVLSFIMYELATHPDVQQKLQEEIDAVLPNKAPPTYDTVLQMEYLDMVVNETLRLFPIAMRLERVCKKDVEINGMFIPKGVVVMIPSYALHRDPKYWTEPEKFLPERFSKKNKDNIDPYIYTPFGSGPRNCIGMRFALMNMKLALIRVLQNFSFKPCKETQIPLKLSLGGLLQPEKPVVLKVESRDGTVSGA
Method: as §5, §6

[7] = both, human, microsomes, 2 μM, pH 7.4
in vivo [8] = conditions: male, CD-1, mouse
in vivo [9] = conditions: male, CD-1, mouse; remark: listed apart in the source
in vitro [10] = conditions: both, human, microsomes, pH 7.4
[11] = Metabolic stability in human liver microsomes; conditions: both, pH 7.4
[12] = Pharmacokinetics and bioavailability in plasma; conditions: male, CD-1, mouse

SMILES: COc1nc(OC(F)(F)F)c(NC(=O)C2CCC3C4CN(C(=O)OC(C)(C)C)C5=CC(=O)CC[C@]5(C)C4CC[C@]23C)cc1Br (stereo partly drawn) [Compound 107]
- Isoniazid MIC shift (Mtb): ++ (4-8-fold ++)
- MIC ([1]; Mycobacterium tuberculosis, INH with 15 μM 6-azasteroid, read-out: LORA MIC of INH): 0.75 µM
- activity under low oxygen conditions ([1]; in combination with isoniazid): active
- MBC (M. tuberculosis): 3 µM
- efflux ratio at 2 h, 5 μM (in vitro [2]; Caco-2, pH 7.4, Efflux Ratio): > 1.06
- recovery at 2 h, 5 μM (in vitro [2]; Caco-2, pH 7.4, Recovery (%) BL-AP): 63.4%
- Efflux Ratio (Caco-2 cell line): 0.71
- Recovery (%) BL-AP (Caco-2 cell line): 58.07%
- hERG inhibition (hERG; at 30 μM): No hERG inhibition was observed
- IC50 (hERG; hERG stably expressed HEK 293 cells): > 30 µM
- inhibition at 30 mM (hERG; human, HEK 293 cells stably expressing hERG, at 30 mM): 34.1%
- IC50 at 3 days (in vitro [3]): > 30 µM
- IC50 at 3 days (in vitro [4]): > 30 µM
- IC50 at 3 days (in vitro [5]): > 30 µM
- IC50 at 3 days (in vitro [6]): > 30 µM
- inhibition at 10 µM (CYP1A2): 0%
- inhibition at 10 µM (CYP2A6): 16.5%
- inhibition at 10 µM (CYP2B6): 0%
- inhibition at 10 µM (CYP2C19): 65.3%
- inhibition at 10 µM (CYP2C8): 39.7%
- inhibition at 10 µM (CYP2C9): 33.1%
- inhibition at 10 µM (CYP2D6): 4.4%
- inhibition at 10 µM (CYP2E1): 0%
- inhibition at 10 µM (CYP3A4; 107 at 10 μM, either midazolam or testosterone as substrate, read-out: inhibition of CYP 3A4): 30%
- inhibition at 10 µM (CYP3A4; at 10 μM, midazolam as substrate, read-out: % Inhibition 3A4 (midazolam)): 30.4%
- inhibition at 10 µM (CYP3A4; at 10 μM, testosterone as substrate, read-out: % Inhibition 3A4 (testosterone)): 30.5%
- IC50 (CYP3A4; both substrates (midazolam, testosterone), tested 10 nM to 50 μM, read-out: CYP 3A4 IC50): > 50 µM
- Remaining Percentage with NADPH, 0 min ([7]; 0 h): 100.00%
- Remaining Percentage with NADPH, 15 min ([7]; 0.25 h): 93.28%
- Remaining Percentage with NADPH, 30 min ([7]; 0.5 h): 79.18%
- Remaining Percentage with NADPH, 45 min ([7]; 0.75 h): 71.86%
- Remaining Percentage with NADPH, 60 min ([7]; 1 h): 65.13%
- half-life (in vivo [8]): ~420 min
- Tmax (in vivo [8]; po, 5 mg/kg): 1 h
- Tmax (in vivo [9]; iv, 1 mg/kg): 5 min
- Tmax (in vivo [9]; po, 5 mg/kg): 60 min
- CLint scaled at 2 μM (in vitro [10]): 18.8 mL/min/kg
- microsomal CLint at 2 μM (in vitro [10]): 15 µL/min/mg
- t1/2 Lung PO (Lung tissue distribution; PO 5 mg/kg, lung, 5 mg/kg): 5.82 h
- half-life (Lung tissue distribution; male, CD-1, mouse, lung, iv, 1 mg/kg, t1/2 Lung IV, IV 1 mg/kg): 413 min
- half-life (Lung tissue distribution; male, CD-1, mouse, lung, po, 5 mg/kg, t1/2 Lung PO, PO 5 mg/kg): 348 min
- Kp (Lung tissue distribution; male, CD-1, mouse, lung/plasma, po, 5 mg/kg): 1.74
- half-life at 2 μM [11]: 92.5 min
- half-life ([12]; iv, 1 mg/kg): 405 min
- half-life ([12]; po, 5 mg/kg): 299 min
